Test results: patent US20080058579A1, “Compositions and methods for treating disease utilizing a combination of radioactive therapy and cell-cycle inhibitors” (Angiotech International AG, priority 1999, published 2008)

Test system: PC3 human prostate cells
Assay: In vivo treatment model using a locally administered cell cycle inhibitor with local radiation
Details: FIG. 16; for percent reduction in tumor volume: one week after treatment
Excerpt: This animal model is used to determine the effectiveness of a locally administered cell cycle inhibitor (e.g., paclitaxel) in conjunction with a locally administered radiation source in treating a proliferative disease, specifically, a cancer. The relative change in tumor volume measured in tumor bearing mice receiving various treatments will be used to gauge the therapy's effectiveness relative to use of local radiation alone or locally administered cell cycle inhibitor alone.
The methods used are as follows. Cancer cells (specifically PC3) human prostate cells, American Type Culture Collection, Rockville Md.) are maintained in DMEM solution with 5% heat-inactivated fetal calf serum. Male SCID mice are inoculated with approximately 1×10^6 cells subcutaneously in the flank region. The tumor injection sites are followed by visual inspection or palpation. Tumor volume is measured using calipers. The tumor is allowed to grow until it reaches a treatable volume of 100-200 mm^3.
At this time the mice are treated as follows. Approximately six brachytherapy seeds are implanted adjacent to the tumor to deliver a local radiation dose of 25-40 Gy (I^125 radiation source). A polymeric paste (100 μl) containing 50 μg paclitaxel (0.5% w/w) is injected subcutaneously adjacent to or into the tumor. The following treatment groups were studied (10 mice per group). 1) Control paste without paclitaxel and non-radioactive (cold) seeds. 2) Control paste and radioactive seeds. 3) 0.5% w/w paclitaxel loaded paste and cold seeds. 4) 0.5% w/w paclitaxel loaded paste and radioactive seeds.
Tumor size is measured at twice-weekly intervals using calipers. An investigator blinded to the experimental groups will conduct the measurements. Caliper measured dimensions may be taken in two (length (L), width (W)) or three dimensions (Height (H)). […]
The animal data are analyzed as follows. The means and standard deviations of the tumor measurements are determined and plotted from the initial day of caliper measurement until the final measurement. […]

## CC(=O)O[C@H]1C(=O)[C@@]2(C)[C@H]([C@H](OC(=O)c3ccccc3)[C@]3(O)C[C@H](OC(=O)[C@H](O)[C@@H](NC(=O)c4ccccc4)c4ccccc4)C(C)=C1C3(C)C)[C@]1(OC(C)=O)CO[C@@H]1C[C@@H]2O [paclitaxel]
One week after treatment with locally administered radiation (I-125) and locally administered paclitaxel, n=9 per treatment
  tumor volume: decreased
Only one of the two treatments (paclitaxel alone)
  percent reduction in tumor volume: lesser reduction
Paclitaxel paste (0.5% w/w) and I-125 seeds given in combination
  percent reduction in tumor volume: greatest
